The values that follow come from US10155927B2, “Method for differentiation of pluripotent stem cells into cardiomyocytes” (Hoffmann-La Roche Inc., priority 2014, dated 2018).

Data set [1] has as its system human embryonic stem cells (hESC) and induced pluripotent stem cells (iPSC). The experiment in a line: Differentiation of pluripotent stem cells (hESC or iPSC) into cardiomyocytes. Type of data set: cell-based. Details: key to Amount of cardiomyocytes obtained: (−) No cardiomyocytes obtained; (+)—(+++): Amount of cardiomyocytes obtained; (+)—(+++): Amount of cardiomyocytes obtained; (+)—(+++): Amount of cardiomyocytes obtained. Conditions: for Ability to induce cardiomyocyte differentiation: other Wnt inhibitors tested instead of Wnt-C59; for Amount of cardiomyocytes obtained: Experiments I-III. On the procedure:
(§1) To initialize differentiation, the cells are incubated in insulin-free medium comprising compound 21 (3-(3-Amino-phenyl)-4-(1-methyl-1H-indol-3-yl)-pyrrole-2,5-dione, also referred to as “compound 21” or “CP21” herein; see e.g., Gong et al. (2010) Bioorganic& Medicinal Chemistry Letters 20:1693-1696) to activate the wnt-pathway. The optimal concentration of compound 21 to induce cardiomyocyte differentiation is dependent on the cell density of the pluripotent cells that are attached to the cell vessel. […] This is surprising as prior art protocols require higher concentrations of other modulators of the Wnt pathway for efficient differentiation.
(§2) The optimal concentration was identified at 2 μM. […] In one embodiment, step c) of the differentiation method comprises incubating the cells in a medium comprising 1-10 μM Wnt-C59. In one preferred embodiment step c) of the differentiation method comprises incubating the cells in a medium comprising 2 μM Wnt-C59.
Anthelmintic niclosamide and Pyrvinium were tested for their ability to induce cardiomyocyte differentiation.
Human embryonic stem cells (hESC) or induced pluripotent stem cells (iPSC) were cultured in 56 cm^2 dishes coated with Matrigel (BD Bioscience, Cat. 354277) at 37° C. and 5% CO2 in 10 ml mTeSR1 medium (Stemcell Technologies, Cat. 05850).
To propagate pluripotent stem cells by conserving their pluripotent state, hESC or iPSC were treated with the following: the cells were washed once with 10 ml PBS−/−, and afterwards incubated with 3 ml Accutase (Innovative Cell Technologies, Cat. AT-104) for 2-3 minutes at 37° C. and 5% CO2, to detach the cells.
The enzymatic reaction of Accutase was stopped with 7 ml mTeSR1 and followed by centrifugation of the cells for 3 minutes at 500×g.
The cells were resuspended in 10 ml mTeSR1, and counted. For further cultivation, 2×10^6 cells were plate on 56 cm^2 dishes with fresh coated Matrigel. Further the hESC or iPSC were cultivated in 10 ml mTeSR1 and 10 μM Rock inhibitor, Y-27632 (Millipore, Cat. SCM075) at 37° C. and 5% CO2. Subsequently, 10 ml mTeSR1 medium was changed daily and the pluripotent stem cells were cultivated to a density of 80% before passaging.
For successful differentiation into cardiomyocytes, pluripotent stem cells were plated at high density using 5.5×10^5/cm^2 of hESC or iPSC. Passaging and cultivation were performed as described above for pluripotent stem cells.
After 24 hours (day 1) the hESC or iPSC were washed once with 180 μl/cm^2 PBS−/− and the cultivation medium was changed to 180 μl/cm^2 differentiation medium.
After 24 hours (day 2) incubation with CP21, the cells were washed with PBS−/− as described above and cultivated for 48 hours in 220 μl/cm^2 differentiation medium.
After 48 hours (day 4), the cells were washed with PBS−/− as described above and cultivated for 48 hours in 220 μl/cm^2 differentiation medium comprising 2 μM Wnt-C59 (Cellagen Technology, Cat. C7641-2s, International Patent Application Publication No. WO 20101 01849), a potent Wnt signaling inhibitor, by blocking Wnt secretion.
After 48 hours (day 6), the cells were washed with PBS−/− as described above and cultivated for 48 hours in 220 μl/cm^2 differentiation medium.
After 48 hours (day 8), the cells were washed with PBS−/− as described above and cultivated for 48 hours in 220 μl/cm^2 RPMI medium comprising ascorbic acid, penicillin-streptomycin, but now including B27 plus insulin, minus vitamin A (=expansion medium)
Subsequent medium changes were performed every 48 hours using 220 μl/cm^2 expansion medium.
To test the efficiency of the differentiation process, the cardiomyocytes were characterized at differentiation day 14 by cell immunohistochemistry and Fluorescence Activated Cell Sorting (FACS) using antigens specific to cardiomyocytes.
The protocol as described above was repeated with different CP21 concentrations. The results are shown in Table 1 below: (−) No cardiomyocytes obtained, (+)—(+++): Amount of cardiomyocytes obtained.

Data set [2] relates to pluripotent cells (hESC or iPSC). The experiment in a line: Cell viability / cell death during the differentiation protocol. Type of data set: cell-based. On the procedure: as §1, §2
Data set [3] relates to pluripotent stem cell derived cardiomyocytes. Put plainly: xCELLigence cardiomyocyte beating analysis. Type of data set: cell-based, human. The method, then: Isoproterenol increases the heart rate and myocardial contractility by stimulating cardiac beta-1 receptors. To detect this proarrhythmic effect in the stem cell derived cardiomyocytes, 7×10^4/cm^2 cells were plated on special E-Plate Cardio 96 (Roche, Cat. No. 05232368001) coated with 130 μl/cm^2 0.1% Gelatine for 1 hour at 37° C. After cells attached to the plate and recovered for 2 days as described above, medium was changed to iCell Cardiomyocytes Maintenance Medium (Cellular Dynamics, Cat. No.CMM-100-120-005). Cells were measured using the xCELLigence RTCA Cardio System (Roche Applied Science). 7 days after plating the cells were treated with 3 μM Isoproterenol and measured directly. Each 96-well plate was measured at a resolution of 12.9 ms. The first 3 minutes were measured without interruption and over the next 24 hours the cells were measured every 15 minutes for 1 minute duration. Activation of β-receptors on the heart induces positive chronotropic effects in cardiomyocytes. To confirm that the pluripotent stem cell derived cardiomyocytes respond to β-receptor activation, the cardiomyocytes were incubated with the β-receptor agonist isoproterenol and subsequently analysed using the xCELLigence system.

In the case of `O=C(Nc1ccc([N+](=O)[O-])cc1Cl)c1cc(Cl)ccc1O` [Anthelmintic niclosamide, niclosamide], in data set [1], the “Ability to induce cardiomyocyte differentiation” value is recorded as “did not result in a successful generation of cardiomyocytes”.

For `Cc1cc(-c2ccc(CC(=O)Nc3ccc(-c4cccnc4)cc3)cc2)ccn1` [Wnt-C59, 2-(4-(2-methylpyridin-4-yl)phenyl)-N-(4-(pyridin-3-yl)phenyl)acetamide], the “Optimal concentration for cardiomyocyte differentiation” value in data set [1] (Wnt repressor in step c), tested 1-10 μM) is 2 µM. The “Effect on cardiomyocytes obtained” value in data set [1] (Wnt-C59 1-10 μM, step c)) is “significant increase in cardiomyocytes”. Also, in data set [2] (step c) of differentiation), the “Concentrations showing increased cell death” value was “more than 5 μM”.

For the compound `Cc1cc(/C=C/c2ccc3cc(N(C)C)ccc3[n+]2C)c(C)n1-c1ccccc1` [Pyrvinium], the “Ability to induce cardiomyocyte differentiation” value in data set [1] is given as “did not result in a successful generation of cardiomyocytes”.

`CC(C)NCC(O)c1ccc(O)c(O)c1` (centres unmarked) [isoproterenol]: in data set [3] (3 μM isoproterenol, untreated control 45 beats per minute), the Beating rate was 60 beats per minute. Further, the “Effect on beating frequency” value in data set [3] (FIG. 5, xCELLigent analysis) is on record as “increases beating frequency”.

Turning to `Cn1cc(C2=C(c3cccc(N)c3)C(=O)NC2=O)c2ccccc21` [CP21, 3-(3-Amino-phenyl)-4-(1-methyl-1H-indol-3-yl)-pyrrole-2,5-dione], the “Amount of cardiomyocytes obtained” value in data set [1] (Cp21 conc. 0.3 μM) was “−”; in data set [1] (Cp21 conc. 1 μM) it was “+”; in data set [1] (Cp21 conc. 2 μM), “++ and +++”; in data set [1] (Cp21 conc. 3 μM), “++ and +”; in data set [1] (Cp21 conc. 5 μM), “+ and −”; in data set [1] (Cp21 conc. 10 μM) it was “−”. In data set [1] (cell density 5.5×10^5/cm^2, tested 0-10 μM at 1.8-11×10^5/cm2 hESC or iPSC), the “Concentration resulting in the most efficient differentiation of pluripotent stem cells into cardiomyocytes” value worked out at 2 µM. Further, the “Incubation time optimal for cardiogenesis” value in data set [1] (various incubation times tested, longer or shorter less efficient) was determined as 24 h. Besides, in data set [2] (After 24 h CP21 incubation), the “Cell death after incubation” value is on record as “strong cell death”. For the same compound, the “Concentrations showing decreased cell viability” value in data set [2] (step b) of differentiation) is recorded as “above 5 μM”.
